Assays:
Format in all cases: in vivo
[1] = test system: Amaranthus retoflexus (AMARE); assay: Post-emergence herbicidal glasshouse test, AMARE; set-up: dose or concentration left out as unconfirmed; settings: evaluated after 13 days, five-point scale
Procedure: (§1) Seeds of a variety of test species are sown in standard soil in pots (Lolium perenne (LOLPE), Amaranthus retoflexus (AMARE), Abutilon theophrasti (ABUTH), Setaria faberi (SETFA), Echinochloa crus-galli (ECHCG), Ipomoea hederacea (IPOHE)). After cultivation for one day (pre-emergence) or after 8 days cultivation (post-emergence) under controlled conditions in a glasshouse (at 24/16° C., day/night; 14 hours light; 65% humidity), the plants are sprayed with an aqueous spray solution derived from the formulation of the technical active ingredient in acetone/water (50:50) solution containing 0.5% Tween 20 (polyoxyethelyene sorbitan monolaurate, CAS RN 9005-64-5). Compounds are applied at 125 g/h unless otherwise indicated. The test plants are then grown in a glasshouse under controlled conditions in a glasshouse (at 24/16° C., day/night; 14 hours light; 65% humidity) and watered twice daily. After 13 days for pre and post-emergence, the test is evaluated for the percentage damage caused to the plant. The biological activities are shown in the following table on a five-point scale (5=80-100%; 4=60-79%; 3=40-59%; 2=20-39%; 1=0-19%). “—” denotes not tested on this species or data not captured.

[2] = test system: Ipomoea hederacea (IPOHE); assay: Post-emergence herbicidal glasshouse test, IPOHE; settings: 125 g/h, evaluated after 13 days, five-point scale
Procedure: as §1

[3] = test system: Ipomoea hederacea (IPOHE); assay: Pre-emergence herbicidal glasshouse test, IPOHE; settings: 125 g/h, evaluated after 13 days, five-point scale
Procedure: as §1

[4] = test system: Setaria faberi (SETFA); assay: Post-emergence herbicidal glasshouse test, SETFA; settings: 125 g/h, evaluated after 13 days, five-point scale
Procedure: as §1

[5] = test system: Echinochloa crus-galli (ECHCG); assay: Post-emergence herbicidal glasshouse test, ECHCG; settings: 125 g/h, evaluated after 13 days, five-point scale
Procedure: as §1

[6] = test system: Echinochloa crus-galli (ECHCG); assay: Pre-emergence herbicidal glasshouse test, ECHCG; settings: 125 g/h, evaluated after 13 days, five-point scale
Procedure: as §1

[7] = test system: Setaria faberi (SETFA); assay: Pre-emergence herbicidal glasshouse test, SETFA; settings: 125 g/h, evaluated after 13 days, five-point scale
Procedure: as §1

[8] = test system: Amaranthus retoflexus (AMARE); assay: Pre-emergence herbicidal glasshouse test, AMARE; settings: 125 g/h, evaluated after 13 days, five-point scale
Procedure: as §1

| Structure (SMILES) | percentage damage caused to the plant, POST Application AMARE [1] | percentage damage caused to the plant, POST Application IPOHE [2] | percentage damage caused to the plant, PRE Application IPOHE [3] | percentage damage caused to the plant, POST Application SETFA [4] | percentage damage caused to the plant, POST Application ECHCG [5] | percentage damage caused to the plant, PRE Application ECHCG [6] | percentage damage caused to the plant, PRE Application SETFA [7] | percentage damage caused to the plant, PRE Application AMARE [8] |
| --- | --- | --- | --- | --- | --- | --- | --- | --- |
| Cn1nnnc1NC(=O)c1ccc(OC(F)(F)F)c(NC(=O)OCC(F)F)c1Cl [Compound 1.011] | 4 (4=60-79%) | 4 (4=60-79%) | 4 (4=60-79%) | 5 (5=80-100%) | 5 (5=80-100%) | 5 (5=80-100%) | 5 (5=80-100%) | 5 (5=80-100%) |
| Cn1nnnc1NC(=O)c1ccc(OC(F)(F)F)c(NC(=O)OCCC#N)c1Cl [Compound 1.012] | 5 (5=80-100%) | 5 (5=80-100%) | 4 (4=60-79%) | 5 (5=80-100%) | 5 (5=80-100%) | 5 (5=80-100%) | 5 (5=80-100%) | 5 (5=80-100%) |
| Cn1nnnc1NC(=O)c1ccc(OC(F)(F)F)c(NC(=O)OCCS(C)(=O)=O)c1Cl [Compound 1.013] | 4 (4=60-79%) | 2 (2=20-39%) | 2 (2=20-39%) | 5 (5=80-100%) | 5 (5=80-100%) | 2 (2=20-39%) | 2 (2=20-39%) | 5 (5=80-100%) |
| Cn1nnnc1NC(=O)c1ccc(OC(F)F)c(NC(=O)OC2COC2)c1Cl [Compound 1.026] | 5 (5=80-100%) | 5 (5=80-100%) | 4 (4=60-79%) | – | 5 (5=80-100%) | 5 (5=80-100%) | 3 (3=40-59%) | 5 (5=80-100%) |
| Cn1nnnc1NC(=O)c1ccc(OC(F)F)c(NC(=O)OCCS(C)(=O)=O)c1Cl [Compound 1.028] | 5 (5=80-100%) | 3 (3=40-59%) | 2 (2=20-39%) | – | 2 (2=20-39%) | 3 (3=40-59%) | 1 (1=0-19%) | 5 (5=80-100%) |
| COC(=O)N(C)c1c(OC(F)(F)F)ccc(C(=O)Nc2nnnn2C)c1Cl [Compound 1.029] | 5 (5=80-100%) | 5 (5=80-100%) | 5 (5=80-100%) | – | 5 (5=80-100%) | 5 (5=80-100%) | 5 (5=80-100%) | 5 (5=80-100%) |
| CCN(C(=O)OC)c1c(OC(F)(F)F)ccc(C(=O)Nc2nnnn2C)c1Cl [Compound 1.030] | 5 (5=80-100%) | 5 (5=80-100%) | 4 (4=60-79%) | – | 5 (5=80-100%) | 5 (5=80-100%) | 5 (5=80-100%) | 5 (5=80-100%) |

— patent US12637437B2, “Herbicidal compounds” (SYNGENTA CROP PROTECTION AG, priority 2021, dated 2026)
